Data from publication PMC7402526, “An in vitro quantitative systems pharmacology approach for deconvolving mechanisms of drug-induced, multilineage cytopenias” (PLoS Computational Biology, 2020).

Experiments:
Assay type in all cases: cell-based, human
[1] = tested on: monocytes (monocyte-lin); assay: MLTA, Mono: concentration-response and QSP model fit; conditions: Homo sapiens, Monocyte, 144 h
In short: (§1)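 Six-day flow cytometry counts, bead-normalized and expressed relative to the mean of six vehicle wells, underlie each value. Cells were primary human bone marrow CD34+ cells cultured in SFEM II with cytokines promoting multi-lineage differentiation and self-renewal.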

[2] = tested on: neutrophils (neutrophil-lin); assay: MLTA, Neut: concentration-response and QSP model fit; conditions: Homo sapiens, Neutrophil, 144 h
In short: (§2)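 Freeze-thawed primary human bone marrow CD34+ cells were grown in SFEM II with a multi-lineage cytokine cocktail, drug added day 0, six days at 37°C. Lineage counts came from 17-parameter flow with TruCount beads, vehicle-normalized per donor, then fitted by an Emax-based QSP model.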

[3] = tested on: hematopoietic stem cells (HSCs); assay: Multi-lineage toxicity assay (MLTA), HSCs: concentration-response and QSP model fit; set-up: EmaxAP,HSC / EmaxT,HSC / Emax_drug_HSC: unitless, 0–2; ≤1 anti-proliferative, >1 adds cell killing
In short: as §2

[4] = tested on: monocyte progenitors (monocyte prog); assay: MLTA, MonoP: concentration-response and QSP model fit; conditions: Homo sapiens, Monocyte, 144 h
In short: as §1

[5] = tested on: early erythroid cells (Eryth I); assay: MLTA, ErythI: concentration-response and QSP model fit; conditions: Homo sapiens, 144 h
In short: as §1

[6] = tested on: B cells (B-lin); assay: MLTA, B-lin: concentration-response and QSP model fit; conditions: Homo sapiens, B-cell, 144 h
In short: as §2

[7] = tested on: granulocyte progenitor (Gran-lin prog); assay: MLTA, GranP: concentration-response and QSP model fit; conditions: Homo sapiens, 144 h
In short: as §1

[8] = QSP model fit of 6-day MLTA data

SMILES: CC(=O)c1c(C)c2cnc(Nc3ccc(N4CCNCC4)cn3)nc2n(C2CCCC2)c1=O [palbociclib]
- EC50 [1, 8]: 39.3 nM
- activity at 0.0002 µM ([1]; dose 0.2 nM, 6 days, normalized to vehicle control, read-out: Mon normalized cell count): 90%
- activity at 0.001 µM ([1]; dose 1 nM, 6 days, normalized to vehicle control, read-out: Mon normalized cell count): 106%
- activity at 0.005 µM ([1]; dose 5 nM, 6 days, normalized to vehicle control, read-out: Mon normalized cell count): 89.9%
- activity at 0.025 µM ([1]; dose 25 nM, 6 days, normalized to vehicle control, read-out: Mon normalized cell count): 58.8%
- activity at 0.1 µM ([1]; dose 100 nM, 6 days, normalized to vehicle control, read-out: Mon normalized cell count): 25.6%
- activity at 0.5 µM ([1]; dose 500 nM, 6 days, normalized to vehicle control, read-out: Mon normalized cell count): 13.2%
- activity at 2.5 µM ([1]; dose 2500 nM, 6 days, normalized to vehicle control, read-out: Mon normalized cell count): 23.9%
- Emax ([1]; parameter from QSP model fitting, read-out: Emax_drug_Mono): 14.2%
- EC50 [2, 8]: 75 nM
- activity at 0.0002 µM ([2]; dose 0.2 nM, 6 days, normalized to vehicle control, read-out: Neut normalized cell count): 95.1%
- activity at 0.001 µM ([2]; dose 1 nM, 6 days, normalized to vehicle control, read-out: Neut normalized cell count): 93.8%
- activity at 0.005 µM ([2]; dose 5 nM, 6 days, normalized to vehicle control, read-out: Neut normalized cell count): 74.6%
- activity at 0.025 µM ([2]; dose 25 nM, 6 days, normalized to vehicle control, read-out: Neut normalized cell count): 51.7%
- activity at 0.1 µM ([2]; dose 100 nM, 6 days, normalized to vehicle control, read-out: Neut normalized cell count): 21.1%
- activity at 0.5 µM ([2]; dose 500 nM, 6 days, normalized to vehicle control, read-out: Neut normalized cell count): 3.9%
- activity at 2.5 µM ([2]; dose 2500 nM, 6 days, normalized to vehicle control, read-out: Neut normalized cell count): 0.666%
- Emax ([2]; parameter from QSP model fitting, read-out: Emax_drug_Neut): 18.4%
- EC50 ([3]; Homo sapiens, Hematopoietic stem cell, 144 h, QSP model fit of 6-day MLTA data): 166 nM
- activity at 0.0002 µM ([3]; Homo sapiens, Hematopoietic stem cell, 144 h, dose 0.2 nM, 6 days, normalized to vehicle control, read-out: HSCs normalized cell count): 89.4%
- activity at 0.001 µM ([3]; Homo sapiens, Hematopoietic stem cell, 144 h, dose 1 nM, 6 days, normalized to vehicle control, read-out: HSCs normalized cell count): 92%
- activity at 0.005 µM ([3]; Homo sapiens, Hematopoietic stem cell, 144 h, dose 5 nM, 6 days, normalized to vehicle control, read-out: HSCs normalized cell count): 98.5%
- activity at 0.025 µM ([3]; Homo sapiens, Hematopoietic stem cell, 144 h, dose 25 nM, 6 days, normalized to vehicle control, read-out: HSCs normalized cell count): 83.4%
- activity at 0.1 µM ([3]; Homo sapiens, Hematopoietic stem cell, 144 h, dose 100 nM, 6 days, normalized to vehicle control, read-out: HSCs normalized cell count): 48.9%
- activity at 0.5 µM ([3]; Homo sapiens, Hematopoietic stem cell, 144 h, dose 500 nM, 6 days, normalized to vehicle control, read-out: HSCs normalized cell count): 25%
- activity at 2.5 µM ([3]; Homo sapiens, Hematopoietic stem cell, 144 h, dose 2500 nM, 6 days, normalized to vehicle control, read-out: HSCs normalized cell count): 9.86%
- Emax ([3]; Homo sapiens, Hematopoietic stem cell, 144 h, parameter from QSP model fitting, read-out: Emax_drug_HSC): 77.6%
- EmaxAP,HSC ([3]; anti-proliferation component, min(1, EmaxT)): 0.776
- activity at 0.0002 µM ([4]; dose 0.2 nM, 6 days, normalized to vehicle control, read-out: MonoPs normalized cell count): 101%
- activity at 0.001 µM ([4]; dose 1 nM, 6 days, normalized to vehicle control, read-out: MonoPs normalized cell count): 92.3%
- activity at 0.005 µM ([4]; dose 5 nM, 6 days, normalized to vehicle control, read-out: MonoPs normalized cell count): 97.3%
- activity at 0.025 µM ([4]; dose 25 nM, 6 days, normalized to vehicle control, read-out: MonoPs normalized cell count): 44.4%
- activity at 0.1 µM ([4]; dose 100 nM, 6 days, normalized to vehicle control, read-out: MonoPs normalized cell count): 14.1%
- activity at 0.5 µM ([4]; dose 500 nM, 6 days, normalized to vehicle control, read-out: MonoPs normalized cell count): 4.6%
- activity at 2.5 µM ([4]; dose 2500 nM, 6 days, normalized to vehicle control, read-out: MonoPs normalized cell count): 0.787%
- Emax ([4]; parameter from QSP model fitting, read-out: Emax_drug_MonoP): 0.0351%
- activity at 0.0002 µM ([5]; dose 0.2 nM, 6 days, normalized to vehicle control, read-out: ErythI normalized cell count): 104%
- activity at 0.001 µM ([5]; dose 1 nM, 6 days, normalized to vehicle control, read-out: ErythI normalized cell count): 109%
- activity at 0.005 µM ([5]; dose 5 nM, 6 days, normalized to vehicle control, read-out: ErythI normalized cell count): 96.4%
- activity at 0.025 µM ([5]; dose 25 nM, 6 days, normalized to vehicle control, read-out: ErythI normalized cell count): 72.1%
- activity at 0.1 µM ([5]; dose 100 nM, 6 days, normalized to vehicle control, read-out: ErythI normalized cell count): 35.1%
- activity at 0.5 µM ([5]; dose 500 nM, 6 days, normalized to vehicle control, read-out: ErythI normalized cell count): 9.41%
- activity at 2.5 µM ([5]; dose 2500 nM, 6 days, normalized to vehicle control, read-out: ErythI normalized cell count): 2.34%
- Emax ([5]; parameter from QSP model fitting, read-out: Emax_drug_ErythroidI): 0.04%
- EC50 [6, 8]: 90.6 nM
- activity at 0.0002 µM ([6]; dose 0.2 nM, 6 days, normalized to vehicle control, read-out: B-lin normalized cell count): 93.4%
- activity at 0.001 µM ([6]; dose 1 nM, 6 days, normalized to vehicle control, read-out: B-lin normalized cell count): 106%
- activity at 0.005 µM ([6]; dose 5 nM, 6 days, normalized to vehicle control, read-out: B-lin normalized cell count): 76.6%
- activity at 0.025 µM ([6]; dose 25 nM, 6 days, normalized to vehicle control, read-out: B-lin normalized cell count): 67.3%
- activity at 0.1 µM ([6]; dose 100 nM, 6 days, normalized to vehicle control, read-out: B-lin normalized cell count): 41.4%
- activity at 0.5 µM ([6]; dose 500 nM, 6 days, normalized to vehicle control, read-out: B-lin normalized cell count): 13.8%
- activity at 2.5 µM ([6]; dose 2500 nM, 6 days, normalized to vehicle control, read-out: B-lin normalized cell count): 8.85%
- Emax ([6]; parameter from QSP model fitting, read-out: Emax_drug_B): 49.9%
- activity at 0.0002 µM ([7]; dose 0.2 nM, 6 days, normalized to vehicle control, read-out: GranPs normalized cell count): 98.2%
- activity at 0.001 µM ([7]; dose 1 nM, 6 days, normalized to vehicle control, read-out: GranPs normalized cell count): 107%
- activity at 0.005 µM ([7]; dose 5 nM, 6 days, normalized to vehicle control, read-out: GranPs normalized cell count): 91.8%
- activity at 0.025 µM ([7]; dose 25 nM, 6 days, normalized to vehicle control, read-out: GranPs normalized cell count): 73.4%
- activity at 0.1 µM ([7]; dose 100 nM, 6 days, normalized to vehicle control, read-out: GranPs normalized cell count): 37%
- activity at 0.5 µM ([7]; dose 500 nM, 6 days, normalized to vehicle control, read-out: GranPs normalized cell count): 8.03%
- activity at 2.5 µM ([7]; dose 2500 nM, 6 days, normalized to vehicle control, read-out: GranPs normalized cell count): 0.794%
- Emax ([7]; parameter from QSP model fitting, read-out: Emax_drug_GranP): 4.7%
